Results taken from US20260274856A1, “COVALENT CEREBLON LIGANDS” (C4 THERAPEUTICS, INC., priority 2023, published 2026).

target: GSPT1 (Homo sapiens, UniProt P15170+Q96SW2); experiment: GSPT1 HiBiT Degradation Assay in 293T.114 cells; details: 24 hours, 293T.114 cells; inflection point of the dose-response curve
Sequence (Q96SW2 whole entry): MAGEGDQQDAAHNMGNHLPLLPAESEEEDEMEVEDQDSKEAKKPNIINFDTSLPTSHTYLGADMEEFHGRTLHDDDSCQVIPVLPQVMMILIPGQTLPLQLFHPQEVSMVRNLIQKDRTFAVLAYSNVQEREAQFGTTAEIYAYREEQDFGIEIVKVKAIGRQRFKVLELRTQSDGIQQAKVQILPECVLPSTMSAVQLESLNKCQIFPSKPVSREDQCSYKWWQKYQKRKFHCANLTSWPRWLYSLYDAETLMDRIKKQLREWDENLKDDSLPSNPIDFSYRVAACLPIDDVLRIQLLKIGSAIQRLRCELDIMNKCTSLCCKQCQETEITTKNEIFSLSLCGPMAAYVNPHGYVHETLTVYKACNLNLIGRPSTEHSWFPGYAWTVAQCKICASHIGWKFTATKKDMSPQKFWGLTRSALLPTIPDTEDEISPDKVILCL
Sequence (Q16531 2-1140, further chain): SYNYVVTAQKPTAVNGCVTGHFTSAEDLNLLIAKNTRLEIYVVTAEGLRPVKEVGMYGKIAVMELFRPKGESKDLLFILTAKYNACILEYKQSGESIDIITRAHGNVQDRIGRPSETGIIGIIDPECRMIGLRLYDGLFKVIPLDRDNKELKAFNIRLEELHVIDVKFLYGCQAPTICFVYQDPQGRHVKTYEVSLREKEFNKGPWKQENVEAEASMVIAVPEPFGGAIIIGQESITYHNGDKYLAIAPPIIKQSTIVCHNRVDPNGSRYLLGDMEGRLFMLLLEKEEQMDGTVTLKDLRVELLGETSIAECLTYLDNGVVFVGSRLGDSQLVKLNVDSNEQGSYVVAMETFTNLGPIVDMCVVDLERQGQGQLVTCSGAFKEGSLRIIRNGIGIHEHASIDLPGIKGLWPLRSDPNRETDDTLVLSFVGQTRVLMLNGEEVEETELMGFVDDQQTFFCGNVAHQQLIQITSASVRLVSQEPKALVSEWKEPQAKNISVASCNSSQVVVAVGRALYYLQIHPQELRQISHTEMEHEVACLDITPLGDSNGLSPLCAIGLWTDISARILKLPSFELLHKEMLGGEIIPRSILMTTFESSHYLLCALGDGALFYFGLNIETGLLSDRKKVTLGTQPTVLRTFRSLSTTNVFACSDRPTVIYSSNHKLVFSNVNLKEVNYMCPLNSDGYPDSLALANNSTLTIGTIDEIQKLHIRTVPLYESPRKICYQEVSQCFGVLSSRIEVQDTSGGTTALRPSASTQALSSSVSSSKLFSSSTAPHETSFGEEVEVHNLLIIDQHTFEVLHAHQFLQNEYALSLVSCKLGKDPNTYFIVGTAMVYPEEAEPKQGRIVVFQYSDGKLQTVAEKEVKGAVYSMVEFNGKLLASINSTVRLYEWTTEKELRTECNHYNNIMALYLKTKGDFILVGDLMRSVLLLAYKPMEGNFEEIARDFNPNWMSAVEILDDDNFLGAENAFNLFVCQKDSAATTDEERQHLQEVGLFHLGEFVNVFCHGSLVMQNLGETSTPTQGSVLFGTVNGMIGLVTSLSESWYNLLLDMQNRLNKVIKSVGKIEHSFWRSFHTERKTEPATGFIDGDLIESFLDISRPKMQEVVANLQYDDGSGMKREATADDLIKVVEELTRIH
Sequence (P15170 whole entry): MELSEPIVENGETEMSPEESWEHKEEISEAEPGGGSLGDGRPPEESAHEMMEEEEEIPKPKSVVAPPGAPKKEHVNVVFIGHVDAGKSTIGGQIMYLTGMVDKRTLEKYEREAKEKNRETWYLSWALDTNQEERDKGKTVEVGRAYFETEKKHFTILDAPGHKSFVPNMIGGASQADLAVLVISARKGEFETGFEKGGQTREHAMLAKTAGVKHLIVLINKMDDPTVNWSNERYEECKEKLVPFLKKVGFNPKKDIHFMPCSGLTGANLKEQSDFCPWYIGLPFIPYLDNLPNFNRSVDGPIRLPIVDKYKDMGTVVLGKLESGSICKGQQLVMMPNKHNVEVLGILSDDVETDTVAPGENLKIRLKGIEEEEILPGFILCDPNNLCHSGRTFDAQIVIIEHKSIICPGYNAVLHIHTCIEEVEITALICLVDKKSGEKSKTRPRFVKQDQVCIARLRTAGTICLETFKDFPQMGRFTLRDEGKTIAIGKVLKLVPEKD
Experimental: Upon cell lysis and addition of the complementing LgBiT polypeptide and its substrate, the HiBiT polypeptide on GSPT1 allows reconstitution of an enzyme that activates its substrate to produce a luminescent signal that is directly proportional to the amount of HiBiT-tagged GSPT1. […] Cell culture flasks and 384-well microplates were acquired from VWR (Radnor, PA, USA).
Cellular GSPT1 protein level was determined based on quantification of luminescent signal using the Nano-Glo® HiBiT Lytic Assay kit (Promega). Following the 24 hr treatment time, Nano-Glo® HiBiT Lytic Assay reagents were added to the cells per the manufacturer's instructions by adding 30 µl of reagent per well, and the luminescence signal was acquired on the PHERAstar plate reader (BMG Labtech, Ortenberg, Germany). Cells treated with DMS0 only (no test compound treatment) were used as the negative control (N). Media only (no cells added) withNano-Glo reagent additionwasused as the background orpositive control (P). The percent response of compound treated samples were calculated by subtracting out the 5 background signal (P) and normalizing to the DMS0 control (N) as follows. 0% Response=100 x (Treated Signal - Average (P))/(Average (N) - Average (P)).
Data were analyzed with a 4-parameter logistic fit to generate sigmoidal dose-response curves. DC50 values were computed as the concentrations where the fitted curves cross the 5000 response level.

SMILES | HIBIT-Degradation 293T.114 GSPT1 24 hours IP nM
CCN(C)S(=O)(=O)Nc1ccc(F)c(Oc2ccc3ncn([C@@H]4COC5(CCN(C(=O)CN6CCC(c7ccc(C8CCC(=O)NC8=O)cc7OS(=O)(=O)F)CC6)CC5)C4)c(=O)c3c2)c1C#N (stereo partly drawn) [drawing 1231] | ** (<10 μM and >1 μM is **)
CCN(C)S(=O)(=O)Nc1ccc(F)c(Oc2ccc3ncn([C@H]4COC5(CCN(C(=O)CN6CCN(c7ccc(C8CCC(=O)NC8=O)cc7OS(=O)(=O)F)CC6)CC5)C4)c(=O)c3c2)c1C#N (stereo partly drawn) [drawing 1232] | ** (<10 μM and >1 μM is **)

same assay, conditions: read-out: HIBIT-Degradation 293T.114 GSPT1 24 hours DC50 nM; 24 hours, 293T.114 cells

SMILES | DC50
CCN(C)S(=O)(=O)Nc1ccc(F)c(Oc2ccc3ncn([C@@H]4COC5(CCN(C(=O)CN6CCC(c7ccc(C8CCC(=O)NC8=O)cc7OS(=O)(=O)F)CC6)CC5)C4)c(=O)c3c2)c1C#N (stereo partly drawn) [drawing 1231] | > 10000 nM
CCN(C)S(=O)(=O)Nc1ccc(F)c(Oc2ccc3ncn([C@H]4COC5(CCN(C(=O)CN6CCN(c7ccc(C8CCC(=O)NC8=O)cc7OS(=O)(=O)F)CC6)CC5)C4)c(=O)c3c2)c1C#N (stereo partly drawn) [drawing 1232] | > 10000 nM

same assay, conditions: read-out: HIBIT-Degradation 293T.114 GSPT1 24 hours Emax

SMILES | Emax
CCN(C)S(=O)(=O)Nc1ccc(F)c(Oc2ccc3ncn([C@@H]4COC5(CCN(C(=O)CN6CCC(c7ccc(C8CCC(=O)NC8=O)cc7OS(=O)(=O)F)CC6)CC5)C4)c(=O)c3c2)c1C#N (stereo partly drawn) [drawing 1231] | < 60%
CCN(C)S(=O)(=O)Nc1ccc(F)c(Oc2ccc3ncn([C@H]4COC5(CCN(C(=O)CN6CCN(c7ccc(C8CCC(=O)NC8=O)cc7OS(=O)(=O)F)CC6)CC5)C4)c(=O)c3c2)c1C#N (stereo partly drawn) [drawing 1232] | 60 to 95%

system: A375—NRASQ^61K cells (cell line A375.11); experiment: CTGlo (CellTiter-Glo 2.0) Cell Viability Assay; format: cell-based; details: 96 h; IP; read-out: CTGlo A375.11 96 hours IP
Experimental: Compounds of the present invention were tested for their effect on the viability of A375—NRASQ^61K cells by quantification of ATP using the CellTiter-Glo® 2.0 Cell Viability Assay (Catalog No. G9243, Promega, Madison, WI, USA). This assay produces a luminescent signal in the presence of ATP, which is indicative of metabolically active cells, making the luminescence readout proportional to the number of viable cells. A375—NRASQ^61K cells, also referred to here as cell line A375.11, (harboring BRAF homozygous V600E mutation and NRAS homozygous Q61K mutation) were purchased from ATCC (Catalog No. CRL-1619IG-2, Manassas, VA, USA).
Cells were also plated to a 384-well plate with no compound treatment, to which CellTiter-Glo® reagent was added and luminescence was read right after plating to act as a baseline signal at time of plating (To).
DMSO treated cells with no CellTiter-Glo® reagent added were used as the background or positive control (P). Viability was determined by subtracting out the average background signal (P) and normalized to the average untreated signal (N) set at 100%.

SMILES | GI50
CCN(C)S(=O)(=O)Nc1ccc(F)c(Oc2ccc3ncn([C@H]4COC5(CCN(C(=O)CN6CCC(c7ccc(NC8CCC(=O)NC8=O)cc7S(=O)(=O)F)CC6)CC5)C4)c(=O)c3c2)c1C#N (stereo partly drawn) [drawing 1178] | > 10 µM
CCN(C)S(=O)(=O)Nc1ccc(F)c(Oc2ccc3ncn([C@H]4COC5(CCN(C(=O)CN6CCC(c7ccc(OC8CCC(=O)NC8=O)cc7OS(=O)(=O)F)CC6)CC5)C4)c(=O)c3c2)c1C#N (stereo partly drawn) [drawing 1179] | 1 to 10 µM
CCN(C)S(=O)(=O)Nc1ccc(F)c(Oc2ccc3ncn([C@H]4COC5(CCN(C(=O)CN6CCC(c7ccc(N8CCC(=O)NC8=O)cc7OS(=O)(=O)F)CC6)CC5)C4)c(=O)c3c2)c1C#N [drawing 1180] | 1 to 10 µM
CCN(C)S(=O)(=O)Nc1ccc(F)c(Oc2ccc3ncn([C@H]4COC5(CCN(C(=O)CN6CCC(c7ccc(OC8CCC(=O)NC8=O)cc7S(=O)(=O)F)CC6)CC5)C4)c(=O)c3c2)c1C#N (stereo partly drawn) [drawing 1181] | > 10 µM
CCN(C)S(=O)(=O)Nc1ccc(F)c(Oc2ccc3ncn([C@@H]4COC5(CCN(C(=O)CN6CCN(c7ccc(N8CCC(=O)NC8=O)cc7OS(=O)(=O)F)CC6)CC5)C4)c(=O)c3c2)c1C#N [drawing 1185] | > 10 µM
CCN(C)S(=O)(=O)Nc1ccc(F)c(Oc2ccc3ncn([C@@H]4COC5(CCN(C(=O)CN6CCC(c7ccc(OC8CCC(=O)NC8=O)cc7OS(=O)(=O)F)CC6)CC5)C4)c(=O)c3c2)c1C#N (stereo partly drawn) [drawing 1186] | > 10 µM

same assay, conditions: 96 hours; IP

SMILES | CTGlo A375.11 96 hours IP nM
CCN(C)S(=O)(=O)Nc1ccc(F)c(Oc2ccc3ncn([C@H]4COC5(CCN(C(=O)CN6CCN(c7ccc(C8CCC(=O)NC8=O)cc7OS(=O)(=O)F)CC6)CC5)C4)c(=O)c3c2)c1C#N (stereo partly drawn) [drawing 1183] | ** (<10 μM and >1 μM is **)

same assay, conditions: 96 hours; IP; read-out: CTGlo A375.11 96 hours IP

SMILES | GI50
CCN(C)S(=O)(=O)Nc1ccc(F)c(Oc2ccc3ncn([C@@H]4COC5(CCN(C(=O)CN6CCC(c7ccc(C8CCC(=O)NC8=O)cc7OS(C)(=O)=O)CC6)CC5)C4)c(=O)c3c2)c1C#N (stereo partly drawn) [drawing 1182] | > 10 µM
CCN(C)S(=O)(=O)Nc1ccc(F)c(Oc2ccc3ncn([C@H]4COC5(CCN(C(=O)CN6CCC(c7ccc(OC8CCC(=O)NC8=O)cc7OS(C)(=O)=O)CC6)CC5)C4)c(=O)c3c2)c1C#N (stereo partly drawn) [drawing 1184] | > 10 µM
CCN(C)S(=O)(=O)Nc1ccc(F)c(Oc2ccc3ncn([C@@H]4COC5(CCN(C(=O)CN6CCC(c7ccc(OC8CCC(=O)NC8=O)cc7OS(C)(=O)=O)CC6)CC5)C4)c(=O)c3c2)c1C#N (stereo partly drawn) [drawing 1187] | > 10 µM
CCN(C)S(=O)(=O)Nc1ccc(F)c(Oc2ccc3ncn([C@@H]4COC5(CCN(C(=O)CN6CCC(c7ccc(NC8CCC(=O)NC8=O)cc7OS(C)(=O)=O)CC6)CC5)C4)c(=O)c3c2)c1C#N (stereo partly drawn) [drawing 1188] | > 10 µM

same assay, conditions: 96 hours; lowest % viability achieved

SMILES | Emax | CTGlo A375.11 96 hours Emax
CCN(C)S(=O)(=O)Nc1ccc(F)c(Oc2ccc3ncn([C@H]4COC5(CCN(C(=O)CN6CCC(c7ccc(NC8CCC(=O)NC8=O)cc7S(=O)(=O)F)CC6)CC5)C4)c(=O)c3c2)c1C#N (stereo partly drawn) [drawing 1178] | 60 to 95% | 
CCN(C)S(=O)(=O)Nc1ccc(F)c(Oc2ccc3ncn([C@H]4COC5(CCN(C(=O)CN6CCC(c7ccc(OC8CCC(=O)NC8=O)cc7OS(=O)(=O)F)CC6)CC5)C4)c(=O)c3c2)c1C#N (stereo partly drawn) [drawing 1179] | 60 to 95% | 
CCN(C)S(=O)(=O)Nc1ccc(F)c(Oc2ccc3ncn([C@H]4COC5(CCN(C(=O)CN6CCC(c7ccc(N8CCC(=O)NC8=O)cc7OS(=O)(=O)F)CC6)CC5)C4)c(=O)c3c2)c1C#N [drawing 1180] | 60 to 95% | 
CCN(C)S(=O)(=O)Nc1ccc(F)c(Oc2ccc3ncn([C@H]4COC5(CCN(C(=O)CN6CCC(c7ccc(OC8CCC(=O)NC8=O)cc7S(=O)(=O)F)CC6)CC5)C4)c(=O)c3c2)c1C#N (stereo partly drawn) [drawing 1181] | 60 to 95% | 
CCN(C)S(=O)(=O)Nc1ccc(F)c(Oc2ccc3ncn([C@@H]4COC5(CCN(C(=O)CN6CCC(c7ccc(C8CCC(=O)NC8=O)cc7OS(C)(=O)=O)CC6)CC5)C4)c(=O)c3c2)c1C#N (stereo partly drawn) [drawing 1182] | 60 to 95% | 
CCN(C)S(=O)(=O)Nc1ccc(F)c(Oc2ccc3ncn([C@H]4COC5(CCN(C(=O)CN6CCN(c7ccc(C8CCC(=O)NC8=O)cc7OS(=O)(=O)F)CC6)CC5)C4)c(=O)c3c2)c1C#N (stereo partly drawn) [drawing 1183] |  | ** (<95% and >60% is **)
CCN(C)S(=O)(=O)Nc1ccc(F)c(Oc2ccc3ncn([C@H]4COC5(CCN(C(=O)CN6CCC(c7ccc(OC8CCC(=O)NC8=O)cc7OS(C)(=O)=O)CC6)CC5)C4)c(=O)c3c2)c1C#N (stereo partly drawn) [drawing 1184] | 60 to 95% | 
CCN(C)S(=O)(=O)Nc1ccc(F)c(Oc2ccc3ncn([C@@H]4COC5(CCN(C(=O)CN6CCN(c7ccc(N8CCC(=O)NC8=O)cc7OS(=O)(=O)F)CC6)CC5)C4)c(=O)c3c2)c1C#N [drawing 1185] | 60 to 95% | 
CCN(C)S(=O)(=O)Nc1ccc(F)c(Oc2ccc3ncn([C@@H]4COC5(CCN(C(=O)CN6CCC(c7ccc(OC8CCC(=O)NC8=O)cc7OS(=O)(=O)F)CC6)CC5)C4)c(=O)c3c2)c1C#N (stereo partly drawn) [drawing 1186] | 60 to 95% | 
CCN(C)S(=O)(=O)Nc1ccc(F)c(Oc2ccc3ncn([C@@H]4COC5(CCN(C(=O)CN6CCC(c7ccc(OC8CCC(=O)NC8=O)cc7OS(C)(=O)=O)CC6)CC5)C4)c(=O)c3c2)c1C#N (stereo partly drawn) [drawing 1187] | 60 to 95% | 
CCN(C)S(=O)(=O)Nc1ccc(F)c(Oc2ccc3ncn([C@@H]4COC5(CCN(C(=O)CN6CCC(c7ccc(NC8CCC(=O)NC8=O)cc7OS(C)(=O)=O)CC6)CC5)C4)c(=O)c3c2)c1C#N (stereo partly drawn) [drawing 1188] | > 95% | 

same assay, conditions: half-maximal inhibition of cell growth; table title: A375.11 96 hours; read-out: CTGlo A375.11 96 hours GI50

SMILES | GI50
CCN(C)S(=O)(=O)Nc1ccc(F)c(Oc2ccc3ncn([C@H]4COC5(CCN(C(=O)CN6CCC(c7ccc(NC8CCC(=O)NC8=O)cc7S(=O)(=O)F)CC6)CC5)C4)c(=O)c3c2)c1C#N (stereo partly drawn) [drawing 1178] | > 10 µM
CCN(C)S(=O)(=O)Nc1ccc(F)c(Oc2ccc3ncn([C@H]4COC5(CCN(C(=O)CN6CCC(c7ccc(OC8CCC(=O)NC8=O)cc7OS(=O)(=O)F)CC6)CC5)C4)c(=O)c3c2)c1C#N (stereo partly drawn) [drawing 1179] | > 10 µM
CCN(C)S(=O)(=O)Nc1ccc(F)c(Oc2ccc3ncn([C@H]4COC5(CCN(C(=O)CN6CCC(c7ccc(N8CCC(=O)NC8=O)cc7OS(=O)(=O)F)CC6)CC5)C4)c(=O)c3c2)c1C#N [drawing 1180] | > 10 µM
CCN(C)S(=O)(=O)Nc1ccc(F)c(Oc2ccc3ncn([C@H]4COC5(CCN(C(=O)CN6CCC(c7ccc(OC8CCC(=O)NC8=O)cc7S(=O)(=O)F)CC6)CC5)C4)c(=O)c3c2)c1C#N (stereo partly drawn) [drawing 1181] | > 10 µM
CCN(C)S(=O)(=O)Nc1ccc(F)c(Oc2ccc3ncn([C@@H]4COC5(CCN(C(=O)CN6CCC(c7ccc(C8CCC(=O)NC8=O)cc7OS(C)(=O)=O)CC6)CC5)C4)c(=O)c3c2)c1C#N (stereo partly drawn) [drawing 1182] | > 10 µM
CCN(C)S(=O)(=O)Nc1ccc(F)c(Oc2ccc3ncn([C@H]4COC5(CCN(C(=O)CN6CCN(c7ccc(C8CCC(=O)NC8=O)cc7OS(=O)(=O)F)CC6)CC5)C4)c(=O)c3c2)c1C#N (stereo partly drawn) [drawing 1183] | > 10 µM
CCN(C)S(=O)(=O)Nc1ccc(F)c(Oc2ccc3ncn([C@H]4COC5(CCN(C(=O)CN6CCC(c7ccc(OC8CCC(=O)NC8=O)cc7OS(C)(=O)=O)CC6)CC5)C4)c(=O)c3c2)c1C#N (stereo partly drawn) [drawing 1184] | > 10 µM
CCN(C)S(=O)(=O)Nc1ccc(F)c(Oc2ccc3ncn([C@@H]4COC5(CCN(C(=O)CN6CCN(c7ccc(N8CCC(=O)NC8=O)cc7OS(=O)(=O)F)CC6)CC5)C4)c(=O)c3c2)c1C#N [drawing 1185] | > 10 µM
CCN(C)S(=O)(=O)Nc1ccc(F)c(Oc2ccc3ncn([C@@H]4COC5(CCN(C(=O)CN6CCC(c7ccc(OC8CCC(=O)NC8=O)cc7OS(=O)(=O)F)CC6)CC5)C4)c(=O)c3c2)c1C#N (stereo partly drawn) [drawing 1186] | > 10 µM
CCN(C)S(=O)(=O)Nc1ccc(F)c(Oc2ccc3ncn([C@@H]4COC5(CCN(C(=O)CN6CCC(c7ccc(OC8CCC(=O)NC8=O)cc7OS(C)(=O)=O)CC6)CC5)C4)c(=O)c3c2)c1C#N (stereo partly drawn) [drawing 1187] | > 10 µM
CCN(C)S(=O)(=O)Nc1ccc(F)c(Oc2ccc3ncn([C@@H]4COC5(CCN(C(=O)CN6CCC(c7ccc(NC8CCC(=O)NC8=O)cc7OS(C)(=O)=O)CC6)CC5)C4)c(=O)c3c2)c1C#N (stereo partly drawn) [drawing 1188] | > 10 µM
